Results published in EP0227818B1, “ANTIGLAUCOMA COMPOSITIONS” (SCHERING CORPORATION, priority 1985, dated 1987).

Experiments:
[1] = Gross examination of cornea, iris, conjunctivae and pupil diameter for ocular irritation in the IOP study; type: in vivo, Male New Zealand white rabbits; settings: rabbits, topical ocular dosing
Source text: Prior to drug administration and at each IOP determination, the cornea, iris, and conjunctivae were grossly examined for signs of irritation. Pupil diameter was also examined but detailed measurements were not made.

[2] = system: intraocular pressure (IOP); assay: Intraocular pressure (IOP) lowering in conscious normotensive rabbits after topical dosing, applanation tonometer; type: in vivo, Male New Zealand white rabbits; settings: 0.5% Timolol alone (plus 50 µl vehicle 1), 50 µl topical to left eye, mean ± SEM; statistically significant vs placebo; concentration giving maximum IOP reduction with timolol alone
Experimental: Food and water were allowed ad libitum. The rabbits were maintained on a light cycle of 12 h darkness (7 PM to 7 AM) followed by 12 h of light. Animals were conditioned to their handlers and the laboratory setting and IOP measurements for at least one 4 h period before being used to study drug effects.
Rabbits were restrained in a cloth sack approximately 2 min prior to IOP determinations. The left lower eyelid was retracted forming a pouch and 1 drop of the local anesthetic proparacaine (0.05% w/v) was irrigated over the cornea. The eyelid was then held closed over the eye about 1 min. IOP was usually monitored 1 h before dosing, at zero time (immediately prior to dosing), and hourly for the next 4 h. Only rabbits with IOP's of 18-23 mmHg and showing no sign of ocular irritation were used in drug studies.
IOP, in mmHg, was determined in triplicate with a McKag-Marg applanation tonometer and the average reading was recorded. The tonometer had previously been calibrated against direct manometric determination of IOP in living eyes of barbiturate-anesthetized rabbits. Internal calibration signals of the McKay-Marg unit were checked after every eight readings or less. […]
The data (mean I SEM) were analyzed using analysis of variance and Dunnett's or Duncan's comparisons and are expressed as peak changes in IOP. […]

For `CC(C)(C)NC[C@H](O)COc1nsnc1N1CCOCC1` [Timolol, 1-[(1,1-dimethylethyl)amino]-3-[(4-morpholinyl-1,2,5-thiadiazol-3-yl)-oxy]-2-propanol], which “signs of acute ocular irritation” value ([1]; all concentrations tested) is on record?
The value was “None”.

What about the Pupillary diameters ([1]; examined, detailed measurements not made) of the same molecule?
Its Pupillary diameters is “not affected”.

And the “Peak Change in IOP” value [2]?
Its value is -3.0±0.4^(1) mmHg.
